# Laboratory results taken from US20250296959A1, “B7-H3 TARGETING PEPTIDES AND CONSTRUCTS THEREOF” (Mariana Oncology Inc., priority 2024, published 2025).
# Starred links: 1 amine or outer side, 2 acyl side, 3 side chain; linkers in the order of their positions; H or OH if unused. Positions of bridges follow the written chain, without caps; N, C: chain ends. Non-standard residues stand in square brackets, D forms with d. Residues, ends and D or L forms follow the SMILES beside them. Groups on a side chain read outwards from the residue. *: point of attachment. X6 = CSCC[C@H](NC(=O)c1ccc(CNC(=O)CN2CCN(CC(=O)O)CCN(CC(=O)O)CCN(CC(=O)O)CC2)cc1)C(=O)N[C@H](C(=O)N[C@@H](CCCCN*)C(=O)O)C(C)C; Ala(1-CH2CO2H-4-piperidyl) = N[C@@H](CC1CCN(CC(=O)O)CC1)C(=O)O; Ala(piperidin-4-yl) = O=C([C@H](CC1CCN([*:3])CC1)N[*:1])[*:2]; DOTA = O=C(O)CN1CCN(CC(=O)O)CCN(CC(=O)*)CCN(CC(=O)O)CC1; Trp(5-F) = N[C@@H](Cc1c[nH]c2ccc(F)cc12)C(=O)O; X1 = C[C@@H](c1ccccc1)[C@H](N[*:1])C(=O)[*:2]; PEG8 = NCCOCCOCCOCCOCCOCCOCCOCCOCCC(=O)O; 1Nal = N[C@@H](Cc1cccc2ccccc12)C(=O)O; Ala(4-THP) = N[C@@H](CC1CCOCC1)C(=O)O; Val(3-OH) = CC(C)(O)[C@H](N)C(=O)O; PEG4 = NCCOCCOCCOCCOCCC(=O)O; Tle = CC(C)(C)[C@H](N)C(=O)O; hLeu = CC(C)CC[C@H](N)C(=O)O; Nle = CCCC[C@H](N)C(=O)O; PEG2 = NCCOCCOCCC(=O)O
# Target: T1, human 4lg B7-H3 (Homo sapiens, UniProt Q5ZPR3)
# T1 sequence (Q5ZPR3 29-534): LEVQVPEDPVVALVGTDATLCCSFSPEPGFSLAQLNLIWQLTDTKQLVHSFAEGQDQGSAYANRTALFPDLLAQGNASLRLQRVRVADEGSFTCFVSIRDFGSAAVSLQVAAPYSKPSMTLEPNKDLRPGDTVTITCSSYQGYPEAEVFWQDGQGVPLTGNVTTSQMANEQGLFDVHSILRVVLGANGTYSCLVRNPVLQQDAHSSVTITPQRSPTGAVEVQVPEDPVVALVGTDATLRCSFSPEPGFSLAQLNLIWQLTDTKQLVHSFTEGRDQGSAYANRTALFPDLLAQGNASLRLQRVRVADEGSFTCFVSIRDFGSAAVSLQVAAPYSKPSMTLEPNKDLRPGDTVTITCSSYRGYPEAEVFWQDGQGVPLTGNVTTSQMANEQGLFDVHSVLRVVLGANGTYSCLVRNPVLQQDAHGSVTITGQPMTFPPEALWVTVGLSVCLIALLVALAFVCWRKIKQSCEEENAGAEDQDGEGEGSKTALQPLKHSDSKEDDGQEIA
# Assay: Affinity determination by surface plasmon resonance (SPR) to 4Ig B7-H3
# Settings: SPR KD—37° C., 4Ig B7-H3; 37° C. flow cell temperature
row,Kd [nM],SMILES
1,< 1,"CC(=O)N[C@@H](CCC(C)C)C(=O)N[C@@H](Cc1ccc(O)cc1)C(=O)N[C@H]1CSSC[C@@H](C(=O)N[C@@H](Cc2c[nH]c3ccc(F)cc23)C(=O)N[C@H](C(=O)N[C@H](C(=O)N[C@@H](CCCCNC(=O)CN2CCN(CC(=O)O)CCN(CC(=O)O)CCN(CC(=O)O)CC2)C(=O)O)C(C)(C)O)[C@@H](C)c2ccccc2)NC(=O)[C@H](Cc2ccc(O)cc2)NC(=O)[C@H](C(C)C)NC(=O)[C@H](CC(=O)O)NC(=O)[C@H](CC2CCOCC2)NC(=O)[C@H](CC2CCNCC2)NC(=O)CNC(=O)[C@H](C(C)(C)C)NC1=O [compound 509, Ac-hLeu-Y-C-Tbg-G-PipAla-ThpA-D-V-Y-C-5FW-[(2S, 3S)beta-Me-Phe]-hydroxyVal-Lys(DOTA)-COOH] (Ac-[hLeu]YC[Tle]G[Ala(piperidin-4-yl)][Ala(4-THP)]DVYC[Trp(5-F)][X1][Val(3-OH)]K(DOTA)-OH; disulfide 3-11)"
2,< 1,"CSCC[C@H](NC(=O)c1ccc(CNC(=O)CN2CCN(CC(=O)O)CCN(CC(=O)O)CCN(CC(=O)O)CC2)cc1)C(=O)N[C@H](C(=O)N[C@@H](CCCCNC(=O)CC[C@@H]1NC(=O)[C@H](CC2CCNCC2)NC(=O)CNC(=O)[C@H](C(C)(C)C)NC(=O)[C@@H](NC(=O)[C@H](Cc2ccc(O)cc2)NC(=O)[C@H](CCC(C)C)NC(C)=O)CSSC[C@@H](C(=O)N[C@@H](Cc2c[nH]c3ccc(F)cc23)C(=O)N[C@H](C(=O)N[C@H](C(=O)N[C@H](CO)C(=O)O)C(C)(C)O)[C@@H](C)c2ccccc2)NC(=O)[C@H](Cc2ccc(O)cc2)NC(=O)[C@H](C(C)C)NC(=O)[C@H](CC(=O)O)NC1=O)C(=O)O)C(C)C [Cpd #518, Ac-hLeu-Y-C-Tbg-G-PipAla-Glu[&Lys(OH)-Val-Met-AmBz-DOTA]-D-V-Y-C-5FW-[(2S, 3S)beta-Me-Phe]-hydroxyVal-dSer-COOH] (Ac-[hLeu]YC[Tle]G[Ala(piperidin-4-yl)]E(X6)DVYC[Trp(5-F)][X1][Val(3-OH)][dS]-OH; disulfide 3-11)"
3,< 1,"CC(=O)N[C@@H](CCC(C)C)C(=O)N[C@@H](Cc1ccc(O)cc1)C(=O)N[C@H]1CSSC[C@@H](C(=O)N[C@@H](Cc2cccc3ccccc23)C(=O)N[C@@H](Cc2ccccc2)C(=O)N[C@H](C(=O)N[C@H](CCC(=O)O)C(N)=O)C(C)(C)O)NC(=O)[C@H](Cc2ccc(O)cc2)NC(=O)[C@H](C(C)C)NC(=O)[C@H](CC(=O)O)NC(=O)[C@H](CC2CCN(C(=O)CCOCCOCCOCCOCCNC(=O)CN3CCN(CC(=O)O)CCN(CC(=O)O)CCN(CC(=O)O)CC3)CC2)NC(=O)[C@H](CC2CCNCC2)NC(=O)CNC(=O)[C@H](C(C)(C)C)NC1=O [compound 454, Ac-hLeu-Y-C-Tbg-G-PipAla-Pip(PEG4-DOTA)Ala-D-V-Y-C-1Nal-F-hydroxyVal-dGlu-CONH2] (Ac-[hLeu]YC[Tle]G[Ala(piperidin-4-yl)][Ala(piperidin-4-yl)]([PEG4-DOTA])DVYC[1Nal]F[Val(3-OH)][dE]-NH2; disulfide 3-11)"
4,1 to 10,"CC(C)CC[C@H](NC(=O)CCOCCOCCOCCOCCOCCOCCOCCOCCNC(=O)CN1CCN(CC(=O)O)CCN(CC(=O)O)CCN(CC(=O)O)CC1)C(=O)N[C@@H](Cc1ccc(O)cc1)C(=O)N[C@H]1CSSC[C@@H](C(=O)N[C@@H](Cc2c[nH]c3ccc(F)cc23)C(=O)N[C@@H](Cc2ccccc2)C(=O)N[C@H](C(N)=O)C(C)(C)O)NC(=O)[C@H](Cc2ccc(O)cc2)NC(=O)[C@H](C(C)C)NC(=O)[C@H](CC(=O)O)NC(=O)[C@H](CC2CCOCC2)NC(=O)[C@H](CCCCN)NC(=O)CNC(=O)[C@H](C(C)(C)C)NC1=O [Cpd #391, DOTA-PEG8-hLeu-Y-C-Tbg-G-K-ThpA-D-V-Y-C-5FW-F-hydroxyVal-CONH2] ({DOTA-PEG8}-[hLeu]YC[Tle]GK[Ala(4-THP)]DVYC[Trp(5-F)]F[Val(3-OH)]-NH2; disulfide 3-11)"
5,1 to 10,"CC(=O)N[C@@H](CCC(C)C)C(=O)N[C@@H](Cc1ccc(O)cc1)C(=O)N[C@H]1CSSC[C@@H](C(=O)N[C@@H](Cc2c[nH]c3ccc(F)cc23)C(=O)N[C@@H](Cc2ccccc2)C(=O)N[C@H](C(=O)N[C@H](CCC(=O)O)C(N)=O)C(C)(C)O)NC(=O)[C@H](Cc2ccc(O)cc2)NC(=O)[C@H](C(C)C)NC(=O)[C@H](CC(=O)O)NC(=O)[C@H](CC2CCOCC2)NC(=O)[C@H](CC2CCN(C(=O)CCOCCOCCNC(=O)CN3CCN(CC(=O)O)CCN(CC(=O)O)CCN(CC(=O)O)CC3)CC2)NC(=O)CNC(=O)[C@H](C(C)(C)C)NC1=O [compound 474, Ac-hLeu-Y-C-Tbg-G-Pip(PEG2-DOTA)Ala-ThpA-D-V-Y-C-5FW-F-hydroxyVal-dGlu-CONH2] (Ac-[hLeu]YC[Tle]G[Ala(piperidin-4-yl)]([PEG2-DOTA])[Ala(4-THP)]DVYC[Trp(5-F)]F[Val(3-OH)][dE]-NH2; disulfide 3-11)"
6,10 to 100,"CCCC[C@H](NC(=O)[C@H](Cc1c[nH]c2ccc(F)cc12)NC(=O)[C@@H]1CSSC[C@H](NC(=O)[C@H](Cc2ccc(O)cc2)NC(=O)[C@H](CCC(C)C)NC(C)=O)C(=O)N[C@@H](C(C)(C)C)C(=O)NCC(=O)N[C@@H](CC2CCN(CC(=O)O)CC2)C(=O)N[C@@H](CC2CCOCC2)C(=O)N[C@@H](CC(=O)O)C(=O)N[C@@H](C(C)C)C(=O)N[C@@H](Cc2ccc(O)cc2)C(=O)N1)C(=O)N1CCC[C@H]1C(=O)N[C@H](CCCCNC(=O)CN1CCN(CC(=O)O)CCN(CC(=O)O)CCN(CC(=O)O)CC1)C(=O)O [compound 321, Ac-hLeu-Y-C-Tbg-G-[Pip(CH2CO2H)Ala]-ThpA-D-V-Y-C-5FW-Nle-Pro-dLys(DOTA)-COOH] (Ac-[hLeu]YC[Tle]G[Ala(1-CH2CO2H-4-piperidyl)][Ala(4-THP)]DVYC[Trp(5-F)][Nle]P[dK](DOTA)-OH; disulfide 3-11)"
